Source: ChEMBL document CHEMBL1961794, “Regulation of circadian behaviour and metabolism by synthetic REV-ERB agonists” (Nature, 2012)

Target: T1, Nuclear receptor subfamily 1 group D member 1 (Homo sapiens, UniProt P20393)
T1 sequence (P20393 whole entry): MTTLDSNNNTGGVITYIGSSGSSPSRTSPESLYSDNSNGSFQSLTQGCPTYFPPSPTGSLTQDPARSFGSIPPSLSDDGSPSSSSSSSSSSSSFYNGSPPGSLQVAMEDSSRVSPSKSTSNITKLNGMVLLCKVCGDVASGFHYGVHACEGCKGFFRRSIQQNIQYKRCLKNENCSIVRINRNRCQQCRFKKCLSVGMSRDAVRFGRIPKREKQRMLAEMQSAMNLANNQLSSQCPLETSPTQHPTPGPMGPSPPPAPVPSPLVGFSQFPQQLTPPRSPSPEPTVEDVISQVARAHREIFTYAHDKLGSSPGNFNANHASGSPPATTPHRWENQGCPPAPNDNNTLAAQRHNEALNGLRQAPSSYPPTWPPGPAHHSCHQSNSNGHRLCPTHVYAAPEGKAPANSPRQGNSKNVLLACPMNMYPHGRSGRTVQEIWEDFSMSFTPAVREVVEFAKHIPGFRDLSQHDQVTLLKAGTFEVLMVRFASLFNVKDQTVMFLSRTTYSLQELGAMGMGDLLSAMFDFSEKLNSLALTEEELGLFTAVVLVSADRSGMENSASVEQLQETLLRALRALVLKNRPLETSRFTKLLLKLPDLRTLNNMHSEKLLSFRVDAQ
Assay: Increased REV-ERB-alpha LBD dependent repressor activity in HEK293 cell reporter assay
Format: cell-based
Conditions: hek293; call rule not given here

IC50: Not Active
SMILES: CC(C)(C)OC(=O)CN(Cc1ccc(Cl)cc1)Cc1ccc([N+](=O)[O-])s1 [GSK-4112]
